In ChEMBL document CHEMBL5154795, “Exploring the structure-activity relationships of diphenylurea as an antibacterial scaffold active against methicillin- and vancomycin-resistant Staphylococcus aureus” (Eur J Med Chem, 2022):
Converted amounts (≈) assume the structure as drawn.

Legend:
Type in all cases: functional
Staphylococcus aureus [1] = assay: Antibacterial activity against methicillin-resistant Staphylococcus aureus USA300 incubated for 18 to 20 hrs by broth microdilution method; details: time 18-20 hrs
Staphylococcus aureus [2] = assay: Induction of drug resistance in methicillin-resistant Staphylococcus aureus USA400 NRS 123 assessed as fold increase in MIC measured after 15 passages by broth microdilution assay
Staphylococcus aureus [3] = assay: Induction of drug resistance in methicillin-resistant Staphylococcus aureus USA400 NRS 123 assessed as fold increase in MIC measured after 7 passages by broth microdilution assay

**Q.** With `C/C(=N\NC(=N)N)c1ccc(NC(=O)Nc2ccc(-c3cccn3C)cc2)cc1` as the compound, how does the MIC (Staphylococcus aureus [1]) read?
**A.** 4 µg/mL (≈ 10.3 µM)

**Q.** How did the MIC (Staphylococcus aureus [1]) turn out when `C/C(=N\NC(=N)N)c1ccc(NC(=O)Nc2ccc(-c3ccoc3)cc2)cc1` was run?
**A.** 4 µg/mL (≈ 10.6 µM)

**Q.** With `C/C(=N\NC(=N)N)c1ccc(NC(=O)Nc2ccc(C=C3CCC3)cc2)cc1` as the compound, how does the MIC (Staphylococcus aureus [1]) read?
**A.** 4 µg/mL (≈ 10.6 µM)

**Q.** With `C/C(=N\NC(=N)N)c1ccc(NC(=O)Nc2ccc(-c3ccccn3)cc2)cc1` as the compound, how does the MIC (Staphylococcus aureus [1]) read?
**A.** 4 µg/mL (≈ 10.3 µM)

**Q.** With `C/C(=N\NC(=N)N)c1ccc(NC(=O)Nc2ccc(-c3ccsc3)cc2)cc1` as the compound, how does the MIC (Staphylococcus aureus [1]) read?
**A.** 4 µg/mL (≈ 10.2 µM)

**Q.** With `C/C(=N\NC(=N)N)c1ccc(NC(=O)Nc2ccc(C3CCC3)cc2)cc1` as the compound, how does the MIC (Staphylococcus aureus [1]) read?
**A.** ≥ 64 µg/mL

**Q.** `CO[C@H]1/C=C/O[C@@]2(C)Oc3c(C)c(O)c4c(O)c(c(/C=N/N5CCN(C)CC5)c(O)c4c3C2=O)NC(=O)/C(C)=C\C=C\[C@H](C)[C@H](O)[C@@H](C)[C@@H](O)[C@@H](C)[C@H](OC(C)=O)[C@@H]1C` was tested. Which fold change (FC) (Staphylococcus aureus [2]) did it give?
**A.** > 500000

**Q.** And the fold change (FC) (Staphylococcus aureus [3])?
**A.** 8
